Source: article PMC3517147 (Chembiochem : a European journal of chemical biology, 2012)
Like-named read-outs stand apart in the source and are kept apart here. Values belong to the compound of their own block, whether it stands above or below them. Peptide text beside a SMILES is read from it.

Tests used:
human ATIC = human ATIC (Homo sapiens, UniProt P31939); assay: AICAR Tfase inhibition assay with human ATIC; format: biochemical
[1] = biological target: T1, AICAR Tfase activity of avian ATIC (Gallus gallus, UniProt P31335); assay: AICAR Tfase inhibition assay
T1 sequence (P31335 1-593): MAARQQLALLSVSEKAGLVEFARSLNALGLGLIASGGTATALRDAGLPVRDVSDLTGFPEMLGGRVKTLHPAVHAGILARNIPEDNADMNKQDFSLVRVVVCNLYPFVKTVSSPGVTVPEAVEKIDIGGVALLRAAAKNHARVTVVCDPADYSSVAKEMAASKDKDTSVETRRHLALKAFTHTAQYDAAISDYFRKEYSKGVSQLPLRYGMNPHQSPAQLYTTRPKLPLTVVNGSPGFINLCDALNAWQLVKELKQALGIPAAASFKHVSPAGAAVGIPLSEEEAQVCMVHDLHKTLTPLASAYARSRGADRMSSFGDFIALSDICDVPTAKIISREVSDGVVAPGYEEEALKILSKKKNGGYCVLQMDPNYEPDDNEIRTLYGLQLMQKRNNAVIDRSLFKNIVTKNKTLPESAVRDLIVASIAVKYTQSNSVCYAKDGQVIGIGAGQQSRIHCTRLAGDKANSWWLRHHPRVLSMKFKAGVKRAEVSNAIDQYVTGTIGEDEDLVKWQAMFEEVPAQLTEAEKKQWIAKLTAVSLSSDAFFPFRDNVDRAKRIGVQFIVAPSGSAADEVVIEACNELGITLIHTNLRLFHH

human ATIC homodimer = human ATIC homodimer (Homo sapiens, UniProt P31939); assay: Size exclusion chromatography of ATIC monomer/dimer ratio; format: binding; details: 50 μM ATIC treated with 10 μM compound
MCF-7 cells [2] = assay: Live-cell imaging; format: cell-based; details: MCF-7, 250 μM
[3] = biological target: T2, AICAR Tfase activity of ATIC (Gallus gallus, UniProt P31335); assay: AICAR Tfase inhibition in the presence of BSA; format: biochemical; details: compound at 10 μM and 50 μM; 1 mg/mL and 10 mg/mL BSA
T2 sequence (P31335 1-593): T1 sequence (P31335 1-593)

MCF-7 cells [4] = assay: MTS-based cell proliferation; details: 48 hours after dosing

Chain of human ATIC (P31939 whole entry): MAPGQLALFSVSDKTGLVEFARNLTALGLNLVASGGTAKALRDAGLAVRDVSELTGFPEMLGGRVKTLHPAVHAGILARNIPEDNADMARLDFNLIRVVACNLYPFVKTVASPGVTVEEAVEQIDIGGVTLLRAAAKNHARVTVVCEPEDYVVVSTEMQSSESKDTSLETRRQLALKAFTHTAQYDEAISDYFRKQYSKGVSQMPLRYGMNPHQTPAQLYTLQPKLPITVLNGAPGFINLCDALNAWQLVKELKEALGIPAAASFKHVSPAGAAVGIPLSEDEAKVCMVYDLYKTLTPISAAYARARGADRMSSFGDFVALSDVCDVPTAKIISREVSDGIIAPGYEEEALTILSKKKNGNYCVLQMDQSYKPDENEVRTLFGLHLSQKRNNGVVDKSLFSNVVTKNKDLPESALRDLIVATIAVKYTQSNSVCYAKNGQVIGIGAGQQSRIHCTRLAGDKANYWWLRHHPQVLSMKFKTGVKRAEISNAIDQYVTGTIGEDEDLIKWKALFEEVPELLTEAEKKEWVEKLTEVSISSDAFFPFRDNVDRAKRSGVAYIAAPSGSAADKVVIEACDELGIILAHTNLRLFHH
Chain of human ATIC homodimer (P31939 whole entry): as above

- Ki with human ATIC compared to the avian enzyme (human ATIC): same Ki (within error)
Compound: CC(C)[C@@H]1NC(=O)[C@H](CC(N)=O)NC(=O)[C@H](Cc2ccccc2)NC(=O)[C@H](Cc2ccc(O)cc2)NC(=O)[C@H](CCCNC(=N)N)NC(=O)[C@H](CS)NC1=O [Compound 1, cyclo-CRYFNV] (cyclo(RYFNVC))

- Ki [1]: 651 ± 25 µM
Compound: CC(C)[C@@H]1NC(=O)[C@H](CC(N)=O)NC(=O)[C@H](Cc2ccccc2)NC(=O)[C@H](Cc2ccc(O)cc2)NC(=O)[C@H](CCCNC(=N)N)NC(=O)[C@H](C)NC1=O [Compound 2, cyclo-ARYFNV] (cyclo(ARYFNV))

- Ki [1]: > 2500 µM
Compound: CC(C)[C@@H]1NC(=O)[C@H](CC(N)=O)NC(=O)[C@H](Cc2ccccc2)NC(=O)[C@H](Cc2ccc(O)cc2)NC(=O)[C@H](C)NC(=O)[C@H](CS)NC1=O [Compound 3, cyclo-CAYFNV] (cyclo(AYFNVC))

- Ki [1]: > 2500 µM
Compound: CC(C)[C@@H]1NC(=O)[C@H](CC(N)=O)NC(=O)[C@H](Cc2ccccc2)NC(=O)[C@H](C)NC(=O)[C@H](CCCNC(=N)N)NC(=O)[C@H](CS)NC1=O [Compound 4, cyclo-CRAFNV] (cyclo(AFNVCR))

- Ki [1]: 38 ± 5 µM
Compound: CC(C)[C@@H]1NC(=O)[C@H](CC(N)=O)NC(=O)[C@H](C)NC(=O)[C@H](Cc2ccc(O)cc2)NC(=O)[C@H](CCCNC(=N)N)NC(=O)[C@H](CS)NC1=O [Compound 5, cyclo-CRYANV] (cyclo(ANVCRY))

- Ki [1]: 368 ± 29 µM
Compound: CC(C)[C@@H]1NC(=O)[C@H](C)NC(=O)[C@H](Cc2ccccc2)NC(=O)[C@H](Cc2ccc(O)cc2)NC(=O)[C@H](CCCNC(=N)N)NC(=O)[C@H](CS)NC1=O [Compound 6, cyclo-CRYFAV] (cyclo(AVCRYF))

- Ki [1]: 252 ± 22 µM
Compound: C[C@@H]1NC(=O)[C@H](CC(N)=O)NC(=O)[C@H](Cc2ccccc2)NC(=O)[C@H](Cc2ccc(O)cc2)NC(=O)[C@H](CCCNC(=N)N)NC(=O)[C@H](CS)NC1=O [Compound 7, cyclo-CRYFNA] (cyclo(ACRYFN))

- ATIC species observed by size exclusion chromatography (human ATIC homodimer): presence of monomeric ATIC
- Ki with human ATIC compared to the avian enzyme (human ATIC): same Ki (within error)
- Ki ([1]; Table 2, RY analogues, avian ATIC, 25 °C): 0.685 ± 0.035 µM
- fold improvement in activity compared to capped RY dimer 8 ([1]; from Ki values of Table 2): 120 fold
Compound: CCN(CC)C(=O)[C@H](Cc1ccc([N+](=O)[O-])cc1)NC(=O)[C@H](CCCNC(=N)N)NC(C)=O [Compound 14, Acetyl-Arg-CONH-Phe(4-NO2)-L-Diethylamide]
- mechanism of effect on cell numbers (MCF-7 cells [2]; analysis of videos over 72 hours): reduction in cell division rates, rather than an increase in cell death
- reduction in proliferation compared to control-treated cells (MCF-7 cells [2]; time-lapse microscopy over 72 hours): 35%
- AICAR Tfase inhibition in presence of BSA [3]: continued to inhibit the reaction to a similar extent as observed in the absence of BSA
- inhibition of viability (MCF-7 cells [4]; MCF-7, 500 μM (maximum dose)): 40%
- effect on viability (MCF-7 cells [4]; MCF-7, 100, 250 or 500 μM): dose-dependent reduction in viability

- fold loss of activity compared to cyclo-CRYFNV ([1]; from Ki values): 8 fold
Compound: linear-CRYFNV [reference compound]
